The values below come from ChEMBL document CHEMBL1129130, “Preparation, antimicrobial evaluation and mutagenicity of differently substituted [2-hydroxyaryl]-[1-methyl-5-nitro-1H-2-imidazolyl]methanols” (1996).

In general, MIC refers to the smallest concentration in the dilution series that meets the test's criterion for growth inhibition. Higher therefore signals weaker potency.

Converted amounts (≈) assume the structure as drawn.

Assay [1] can be described thus: Minimum inhibitory concentration (MIC) of compound expressed as geometric mean of various bacterias.*. The format is functional.
The subject of assay [2] is Salmonella typhimurium. The assay is described as follows: Compound was tested for the mutagenicity activity in the Salmonella Typhimurium reverse mutation assay; +-indicates the levels of mutagenicity as the number of revertant colonies obtained increases 1.5-2 times. Type of assay: functional, organism-based. The conditions noted are these: Salmonella enterica subsp. enterica serovar Typhimurium.

The subject of assay [3] is Salmonella typhimurium. In words: Compound was tested for the mutagenicity activity in the Salmonella Typhimurium reverse mutation assay;(+) - low levels of mutagenicity. Type of assay: functional, organism-based. The conditions noted are these: Salmonella enterica subsp. enterica serovar Typhimurium.
Assay [4] in a line: Minimum inhibitory concentration (MIC) of compound expressed as geometric mean of various bacterias. Type of assay: functional.
Assay [5] deals with Salmonella typhimurium. The assay is described as follows: Compound was tested for the mutagenicity activity in the Salmonella Typhimurium reverse mutation assay (+) - low levels of mutagenicity. Type of assay: functional, organism-based. The conditions noted are these: Salmonella enterica subsp. enterica serovar Typhimurium.
Assay [6] has as its system Salmonella typhimurium. The assay is described as follows: Compound was tested for the mutagenicity activity in the Salmonella Typhimurium reverse mutation assay; ++/+++-indicates the levels of mutagenicity as the number of revertant colonies obtained increases 5/10 times. The format is functional, organism-based. The conditions noted are these: Salmonella enterica subsp. enterica serovar Typhimurium.

In assay [7] the test system is Salmonella typhimurium. The assay is described as follows: Compound was tested for the mutagenicity activity in the Salmonella Typhimurium reverse mutation assay; (+) - low levels of mutagenicity. The conditions noted are these: Salmonella enterica subsp. enterica serovar Typhimurium. Type of assay: functional, organism-based.

In turn, `COc1cc(C(O)c2ncc([N+](=O)[O-])n2C)c(O)c(C(C)(C)C)c1` (centres undefined) yielded an MIC in assay [1] of 28.2 µM (≈ 9.46 µg/mL).
`Cn1c([N+](=O)[O-])cnc1C(O)c1cccc(C2CCCCC2)c1O` (centres undefined): the Mutagenicity entry in assay [2] is listed as “Levels of mutagencity as the number of revertant colonies obtained increases 1.5-2 times”. The MIC in assay [1] was determined as 4.68 µM (≈ 1.55 µg/mL).
In turn, `Cn1c([N+](=O)[O-])cnc1C(O)c1cccc(C2C3C[C@H]4C[C@@H](C3)C[C@@H]2C4)c1O` (some centres undefined) yielded an MIC in assay [1] of 3.84 µM (≈ 1.47 µg/mL).
In the case of `Cn1c([N+](=O)[O-])cnc1C(O)c1cc(Cl)cc(C2C3C[C@H]4C[C@@H](C3)C[C@@H]2C4)c1O` (some centres undefined), the Mutagenicity result in assay [3] is recorded as “low levels of mutagenicity”. For the same compound, the MIC in assay [1] was 6.78 µM (≈ 2.83 µg/mL).
On to `Cn1c([N+](=O)[O-])cnc1C(O)c1cc(C2CCCCC2)ccc1O` (centres undefined), for which the MIC in assay [4] stood at 8.82 µM (≈ 2.92 µg/mL). The Mutagenicity entry in assay [5] is on record as “low levels of mutagenicity”.
Turning to `Cn1c([N+](=O)[O-])cnc1C(O)c1cc(C23C[C@H]4C[C@@H](C2)C[C@@H](C3)C4)ccc1O` (some centres undefined), in assay [1], the minimum inhibitory concentration (MIC) was found to be 2.43 µM (≈ 0.932 µg/mL).
As to `Cn1c([N+](=O)[O-])cnc1C(O)c1cc(F)cc(C2C3C[C@H]4C[C@@H](C3)C[C@@H]2C4)c1O` (some centres undefined), the Mutagenicity result in assay [3] is on record as “low levels of mutagenicity”. The minimum inhibitory concentration (MIC) in assay [1] was 3.97 µM (≈ 1.59 µg/mL).
With `Cn1c([N+](=O)[O-])cnc1C(O)c1cccc(C23C[C@H]4C[C@@H](C2)C[C@@H](C3)C4)c1O` (some centres undefined), the Mutagenicity entry in assay [2] is “Levels of mutagencity as the number of revertant colonies obtained increases 1.5-2 times”. The minimal inhibitory concentration (MIC) in assay [1] was found to be 4.46 µM (≈ 1.71 µg/mL).
In assay [1], `Cc1ncc([N+](=O)[O-])n1CCO` [METRONIDAZOLE] gave an MIC of 1.46 µM (≈ 0.25 µg/mL).
Turning to `Cn1c([N+](=O)[O-])cnc1C(O)c1cc(C(C)(C)C)ccc1O` (centres undefined) [ABUNIDAZOLE], the Mutagenicity entry in assay [6] is reported as “++/+”. Moreover, the MIC in assay [1] was determined as 13.1 µM (≈ 4 µg/mL).
For `COc1cc(C(O)c2ncc([N+](=O)[O-])n2C)c(O)c(C2C3C[C@H]4C[C@@H](C3)C[C@@H]2C4)c1` (some centres undefined), the Mutagenicity result in assay [7] is “low levels of mutagenicity”. Also, in assay [1], the MIC amounted to 4.21 µM (≈ 1.74 µg/mL).
In turn, `Cn1c([N+](=O)[O-])cnc1C(O)c1cc(C2C3C[C@H]4C[C@@H](C3)C[C@@H]2C4)ccc1O` (some centres undefined) had a minimal inhibitory concentration (MIC) in assay [1] of 1.8 µM (≈ 0.69 µg/mL).
